From patent US10842868B2 (priority 2012, dated 2020)

Tests used:
DT, TT, PT, FHA and 69K = format: physicochemical
[1] = format: physicochemical; settings: K2 10, 50, 250 or 500 μg/ml; Al—H 3 mg/ml; all strengths
Experimental: Compound K2 is added to water at 4mg/ml, then 1M NaOH is added to ensure full solubilisation, with stirring for 15 minutes at room temperature. This material is added to a suspension of aluminium hydroxide adjuvant (Al—H) to give the desired final concentration. This mixture is shaken for 2 hours at ambient temperature to ensure full adsorption, and then histidine buffer components are added (10mM histidine buffer, pH 6.5).
Four different mixtures are prepared, giving a final K2 concentration of 10, 50, 250 or 500 μg/ml (to provide a 1, 5, 25 or 50 μg dose of K2 in a 100 μl dosage volume); the Al—H concentration is always 3 mg/ml. At all strengths >95% of compound K2 is adsorbed to the Al—H. The adsorbed adjuvant is referred to hereafter as “Al—H/K2”.

## Cc1cc(OCCOCCOCCP(=O)(O)O)ccc1CCc1cnc2c(N)nc3cc(CCC(=O)O)ccc3c2c1 [K2, 3-(5-amino-2-(2-methyl-4-(2-(2-(2-phosphonoethoxy)ethoxy)ethoxy)phenethyl)benzo [f]-[1,7]naphthyridin-8-yl)propanoic acid]
DT, TT, PT, FHA and 69K
  adsorption of all antigens: completely adsorbed
[1]
  compound K2 adsorbed to the Al—H: > 95%
